Values after ≈ are worked out from the molar mass of the structure shown. A value given as a limit tells only on which side of the number the result lay.

Series [1] can be described thus: Nitric oxide radical (NO) scavenging test (Griess reaction). How it is done:
In brief, 3 mL of the reaction mixture (2 mL of 10 mM sodium nitroprusside, 0.5 mL phosphate buffer saline, and 0.5 of tested samples). The mixture was incubated for 150 min at 25 °C. Then 0.5 mL of the mixture was mixed with 1 mL of (sulfanilic acid reagent: 0.33% in 20% glacial acetic acid). After 5 min, 1 mL of naphthyl ethylene diamine dihydrochloride 0.1% was added. After 30 min at room temperature, the absorbance was conducted using a Varian CARY 50 Scan UV–VIS Spectrophotometer with a Cary 50 Microplate Reader Accessory (Varian, Inc., Walnut Creek, CA, USA) at 540 nm. The nitrite percentage was determined by considering Equation 1 described above.
On the technique in general: Griess reagent forms a coloured azo dye with nitrite.

In series [2] the test system is Bovine Serum Albumin (BSA).
Description: Bovine Serum Albumin (BSA) was oxidized by AAPH using a method outlined earlier [18]. […] The control sample was without AAPH.
Then the mixture was loaded and separated using SDS-PAGE 10% after reduction conditions for 5 min, at 100 °C. The free stained gels’ images were taken with a ChemiDoc MV gel documentation system (Bio-Rad, Hercules, CA, USA). The band intensity determined the protein damage amount for each band using Image Lab 4.1 Software version 6.1.0 (Bio-Rad, Hercules, CA, USA).
Series [3] in a line: DPPH free radical-scavenging test. The following applies: tested 0.1 to 5 mg/mL. As to the method:
They were determined to be effective against 1,1-diphenyl-2, picrylhydrazyl radicals. The results of the study were compared with those of a previously reported method. […] The absorbance was conducted using a Varian CARY 50 Scan UV–VIS Spectrophotometer with a Cary 50 Microplate Reader Accessory (Varian, Inc., Walnut Creek, CA, USA).

Series [4] is described as follows: Total antioxidant activity (TAC, phosphomolybdate). The following applies: tested 0.1-5 mg/mL. As to the method:
In brief, 0.3 mL of a reagent composed of sodium phosphate 28 mM, sulphuric acid 0.6 M, and ammonium molybdate 4 mM were added to 0.1 mL tested samples and incubated at 95 °C for 90 min. After cooling, the mixture was measured at 695 nm using a Varian CARY 50 Scan UV–VIS Spectrophotometer with a Cary 50 Microplate Reader Accessory (Varian, Inc., Walnut Creek, CA, USA). A higher antioxidant capacity is correlated with a higher absorbance value.

The test system of another series is Ferritin. The series is described as follows: Labile iron inhibition test (iron release from ferritin by superoxide). Format: biochemical. How it is done: The tested mixture was irradiated with a fluorescent lamp at room temperature for 90 min. Labile iron was measured, as noted previously.
The nature of series [5]: Ferric-reducing/antioxidant power (FRAP) test. The following applies: tested 0.1 to 5 mg/mL. How it is done: The FRAP reagent proportions consisted of 1:1:10 (v/v/v) of TPTZ 10 mM solution in 40 mM HCl, FeCl3 20 mM, and acetate buffer pH 3.6, 0.3 M. Then, 1 mL of the tested sample was mixed with 2 mL of freshly prepared FRAP reagent. The mixtures were incubated for 30 min at 37 °C. The absorbance was conducted using a Varian CARY 50 Scan UV–VIS Spectrophotometer with a Cary 50 Microplate Reader Accessory (Varian, Inc., Walnut Creek, CA, USA), at 593 nm. Deionized water was used as a blank. FeSO4 was used for the calibration curve. The values of FRAP were expressed as µmol of Fe (II).

The term IC50 denotes the midpoint of a concentration-inhibition curve. Read a high IC50 as lower potency. In the case of `O=C1O[C@H]([C@@H](O)CO)C(O)=C1O` [VC, vitamin C], the “scavenging capacity for NO” value in series [1] (0.5 mg/mL) is listed as 40.92%; in series [1] (1 mg/mL) it was 29.57%; in series [1] (3 mg/mL) it was 55.12%; in series [1] (5 mg/mL), 56.55%; in series [1] (starting value (lowest concentration)), 59.10%. For the same molecule, the “IC50, Nitric oxide” value in series [1] (tested 0.1 to 5 mg/mL) was 2710 ± 65.98 µg/mL (≈ 15.4 mM). Moreover, the IC50 in series [2] was less than 100 µg/mL. Besides, the “Free Radical Inhibition Activity IC50, DPPH” value in series [3] worked out at 880 ± 12.89 µg/mL. In series [4], the “IC50, Total antioxidant Capacity” value is reported as 3005.29 ± 427.80 µg/mL (≈ 17.1 mM).
Regarding `C[C@@H]1O[C@@H](OC[C@H]2O[C@@H](Oc3c(-c4ccc(O)c(O)c4)oc4cc(O)cc(O)c4c3=O)[C@H](O)[C@@H](O)[C@@H]2O)[C@H](O)[C@H](O)[C@H]1O` [Rutin], the entries for the “percent inhibition of iron release from ferritin” value (“percent inhibition” for short) in the series on Ferritin (at 10 μg), with Ferritin (at 50 μg) and in the series with Ferritin (at 100 μg) were 85.32 ± 0.56%, 90.30 ± 0.01% and 96.65 ± 0.01%, respectively. Besides, in series [5], the “Free Radical Inhibition Activity IC50, FRAP” value was 533 ± 22.85 µg/mL.
`O=C(O)c1cc(O)c(O)c(O)c1` [Gallic acid, gallic acid]: the “percent inhibition” value with Ferritin (at 10 μg) was 50.68 ± 0.18%; in the series with Ferritin (at 50 μg), 59.22 ± 0.81%; with Ferritin (at 100 μg), 68.55 ± 0.38%. Moreover, the “IC50, Labile Iron” value in the series with Ferritin (iron release from ferritin by superoxide) was 4.86 ± 0.23 µg/mL (≈ 0.0286 mM).
As for `Cc1c(C)c2c(c(C)c1O)CCC(C)(C(=O)O)O2` (centres unmarked) [Trolox], the results for the “percent inhibition” value in the series with Ferritin (at 10 μg), in the series on Ferritin (at 50 μg) and in the series with Ferritin (at 100 μg) were 39.33 ± 0.54%, 84.79 ± 3.00% and 87.87 ± 1.87%, respectively.
